Results: article PMC8936051 (Journal of medicinal chemistry, 2022)
Read-outs that look alike come from different tables or passages of the source. Peptide text beside a SMILES is read from it. * marks the point of attachment. Cbz = O=C(OCc1ccccc1)*; CH2F = FC*

Legend:
[1] = system: SARS-CoV-2 PP entry into HEK293-ACE2 cells; test: microbe, parasite or virus in culture; type: cell-based
SARS-CoV-2 live virus = test: microbe, parasite or virus in culture; type: cell-based
SARS-CoV-2 3CL protease [2] = target: T1, SARS-CoV-2 3CL protease (Severe acute respiratory syndrome coronavirus 2, UniProt P0DTD1); type: biochemical; conditions: read-out: IC50, 3CL protease assay
SARS-CoV-2 3CL protease [3] = target: T1, SARS-CoV-2 3CL protease; conditions: read-out: IC50, 3CL protease; finding of Sun et al.; cited from earlier work
[4] = Severe acute respiratory syndrome coronavirus 2, read-out: IC50, PP entry assay
[5] = Severe acute respiratory syndrome coronavirus 2, read-out: AC50 (potency), CPE assay
[6] = read-out: AC50 (potency), CPE assay

Row | SMILES | efficacy, PP entry assay [1] [%] | IC50 [1, 4] [µM] | AC50 (SARS-CoV-2 live virus; [6]) [µM] | other results
1 | CCN(CC)Cc1cc(Nc2ccnc3cc(Cl)ccc23)ccc1O [NCGC00017063, Amodiaquine] | 103 | 19 |  | AC50 (SARS-CoV-2 live virus; [5]): 4.14 ± 1.41 µM
2 | COc1ccc2cc1Oc1ccc(cc1)C[C@H]1c3c(cc4c(c3Oc3cc5c(cc3OC)CCN(C)[C@@H]5C2)OCO4)CCN1C [NCGC00161621, Cepharanthine] | 102 | 6.88 |  | AC50 (SARS-CoV-2 live virus; [5]): 1.41 ± 0.39 µM
3 | CCN(CC)CCCCNc1nc2cc(Cl)c(Cl)cc2nc1-c1ccc(-c2cccs2)s1 [NCGC00263128, PD 0220245] |  |  | < 5 | 
4 | O=C(NCc1ccccc1)[C@H](Cc1ccccc1)NC(=O)[C@H]1O[C@@H]1C(=O)NCCc1ccc(O)cc1 [NCGC00345807, CAA-0225] | 89 |  | 0.2 ± 0.07 | IC50 ([1]; read-out: IC50, PP entry assay): 0.6 µM
5 | C=C(c1ccc(C(=O)O)c(F)c1)c1cc2c(cc1C)C(C)(C)CCC2(C)C [NCGC00371011, Fluorobexarotene] |  |  |  | IC50 (SARS-CoV-2 3CL protease [2]): 28.9 ± 2.35 µM
6 | Nc1nc(Nc2ccc3c(c2)CC[C@@H](N2CCCC2)CC3)nn1-c1cc2c(nn1)-c1ccccc1CCC2 [NCGC00386665, Bemcentinib] | 112 | 19 |  | AC50 (SARS-CoV-2 live virus; [5]): 3.36 µM
7 | COC(=O)C[C@H](NC(=O)[C@H](CCSC)NC(=O)[C@H](CCC(N)=O)NC(=O)[C@H](CC(=O)OC)NC(=O)OCc1ccccc1)C(=O)CF [NCGC00390337, Z-DQMD-FMK] (Cbz-D(OMe)QMD(OMe)-CH2F) |  |  |  | IC50 (SARS-CoV-2 3CL protease [2]): 0.92 µM; IC50 (SARS-CoV-2 3CL protease [3]): 0.94 µM
8 | CC[C@@]1(O)C(=O)OCc2c1cc1n(c2=O)Cc2c-1nc1cc(F)c(C)c3c1c2[C@@H](N)CC3 [NCGC00390584, Exatecan] |  | 0.0031 |  | 
9 | COc1ccc(C(C)(C)C)cc1CN[C@H]1C2CCN(CC2)[C@H]1C(c1ccccc1)c1ccccc1 [NCGC00390625, Maropitant] |  |  | 3.55 ± 1.12 | 
10 | COc1ccc(-c2cc3c(nc2-c2ccccc2)nc(C(=O)NCCN(C)C)n3C)cn1 [NCGC00417833] |  |  | 22 | 
11 | OC(c1cc(-c2ccc(Cl)cc2)nc2ccccc12)C1CCCCN1 (centres unmarked) [NCGC00482724, Vacquinol-1] |  |  | < 5 | 
12 | CCCc1cc(C)[nH]c(=O)c1CNC(=O)c1cc(-c2ccc(N3CCN(C)CC3)nc2)nc2c1cnn2C(C)C [NCGC00590975, JQEZ5] |  |  | < 5 | 
13 | CCN(CC)CCCNc1ccnc2cc(Cl)ccc12 [NCGC00599688, AQ-13] |  |  | 3.98 | IC50 ([1]; read-out: IC50, PP entry assay): 14.2 ± 11.7 µM
